The values below are quoted from earlier work in patent US20230277473A1 (priority 2023, published 2023).

For series [1] the following is noted: in vivo.

As a reminder, the half-life is the time in which the quantity being followed falls by half. Regarding `Cc1nc2n(c(=O)c1CCN1CCC(c3noc4cc(F)ccc34)CC1)CCCC2O` (centres unmarked) [9-hydroxyrisperidone], the half-life in series [1] is 21 h.

On to `Cc1nc2n(c(=O)c1CCN1CCC(c3noc4cc(F)ccc34)CC1)CCCC2` [RPD, risperidone], for which the solubility in water entry was “almost insoluble in water”.
